# Results: patent US20210290557A1, “MULTI-PARTICULATE PHARMACEUTICAL COMPOSITION, IMMEDIATE RELEASE PELLETS, SUSTAINED RELEASE PELLETS, ENTERIC RELEASE PELLETS AND USE THEREOF” (Industrial Technology Research Institute, priority 2019, published 2021)
# Assay: Solubility test for sobrerol in dissolution medium with different pH and purified water
# Type: physicochemical
# Protocol: 1. The Preparation of Dissolution Medium with Different pH Levels:
# (1) Dissolution Medium with pH 2.5
# 7.164 g of disodium hydrogen phosphate (containing 12 molecules of water) was added to a 100 mL volumetric flask, then purified water was added to quantify to 100 mL, and then stirred using a stir bar. After the disodium hydrogen phosphate (containing 12 molecules of water) in the volumetric flask was completely dissolved, a 0.2 M disodium hydrogen phosphate solution was obtained.
# 19.213 g of anhydrous citric acid was assed to a 1 L volumetric flask, then purified water water was added to quantify to 1 L, and then stirred using a stir bar. After the anhydrous citric acid in the volumetric flask was completely dissolved, a 0.1 M citric acid solution was obtained.
# Next, According to the list of formulas of McIlvaine buffer with different pH values, 0.2 M […] solution and 0.1 M citric acid solution were mixed at a ratio of 1.71:18.29 to obtain a dissolution medium with pH 2.5.
# (2) Dissolution Medium with pH 4.5
# 15.6 g of Sodium dihydrogen phosphate (containing 2 molecules of water) was added to a 1 L volumetric flask, then purified water water was added to quantify to 1 L, and then stirred using a stir bar. After the sodium dihydrogen phosphate (containing 2 molecules of water) in the volumetric flask was completely dissolved, a phosphate dissolution medium with pH 4.5 was obtained.
# (3) Dissolution Medium with pH 6.8
# 7.8 g of Sodium dihydrogen phosphate (containing 2 molecules of water) and 0.94 g of sodium hydroxide were added to a 1 L volumetric flask, then purified water water was added to quantify to 1 L, and then stirred using a stir bar. […]
# 250 mL of dissolution medium prepared above or purified water water was added to a beaker and a stir bar was added for stirring. […] Sobrerol was continuously added until sobrerol cannot be completely dissolved within 30 minutes, and then the total amount of sobrerol added was counted, that was, the actual solubility limit of sobrerol.
smiles,measurement,setting,value
CC1=CCC(C(C)(C)O)CC1O (stereo not drawn) [sobrerol],soluble amount of sobrerol (actual solubility limit),"250 mL dissolution medium with pH 2.5, 4.5, 6.8 or purified water, all media",> 900 mg
same,effect of pH on solubility of sobrerol,dissolution medium with different pH and purified water,not affected by pH
same,solubility classification according to FDA Biopharmaceutics Classification System guideline,soluble amount compared with the daily total of 900 mg,meets the specifications for high solubility drugs
